Where two headings read alike, the source gives them in different places.
Biological target: GAL4 DBD (1-147)-CfEcR(DEF)/VP16AD-βRXREF-LmUSPEF (Choristoneura fumiferana, UniProt O77240)
Assay: cell-based
Conditions: for Fold Induction, 27-63 Assay, 3.3 uM: 3.3 uM ligand; for Fold Induction, 27-63 Assay, 3.3 uM / Fold Induction, 27-63 Assay, 33 uM: RLU ligand treated / RLU DMSO treated cells; for Fold Induction, 27-63 Assay, 33 uM: 33 uM ligand; for 27-63 assay Rel Max FI: maximum fold induction at any concentration relative to that of GS-E ligand, CHO 27-63 cells; for fold induction at 3.3 µM: read-out: Fold Induction, 27-63 Assay, 3.3 uM; for fold induction at 33 µM: read-out: Fold Induction, 27-63 Assay, 33 uM
[1] = read-out: 27-63 assay EC50, CHO 27-63 stable cell line, luciferase reporter, average of two wells

CCc1c(OC)cccc1C(=O)NN(C(=O)c1cc(Cl)ccc1[N+](=O)[O-])C(C)(C)C [RG-115257]
Fold Induction, 27-63 Assay, 3.3 uM (average of two wells): 1130
Fold Induction, 27-63 Assay, 33 uM (average of two wells): 1320
27-63 assay Rel Max FI: 0.663
EC50 [1]: 698 nM

CCc1c(C(=O)NN(C(=O)c2ccccc2OC)C(C)(C)C)ccc2c1OCCO2 [RG-115244]
Fold Induction, 27-63 Assay, 3.3 uM (average of two wells): 2203
Fold Induction, 27-63 Assay, 33 uM (average of two wells): 1847
27-63 assay Rel Max FI: 0.785
EC50 [1]: 169 nM

Cc1ccc([N+](=O)[O-])c(C(=O)N(NC(=O)c2ccc3c(c2C)OCCO3)C(C)(C)C)c1 [RG-115384]
Fold Induction, 27-63 Assay, 3.3 uM (average of two wells): 1713
Fold Induction, 27-63 Assay, 33 uM (average of two wells): 1282
27-63 assay Rel Max FI: 0.645
EC50 [1]: 113 nM

COc1cc(C(=O)N(NC(=O)c2ccc3c(c2C)CCCO3)C(C)(C)C)cc(OC)c1C [RG-115055]
Fold Induction, 27-63 Assay, 3.3 uM (average of two wells): 4499
Fold Induction, 27-63 Assay, 33 uM (average of two wells): 2725
27-63 assay Rel Max FI: 1.341
EC50 [1]: 318 nM

CCc1c(OC)cccc1C(=O)NN(C(=O)c1cc(C)cc(C)c1)C(C)(C)C=NNC(N)=O [RG-115653, semicarbazide of 2-ethyl-3-methoxy-benzoic acid N′-(3,5-dimethyl-benzoyl)-N′-(1,1-dimethyl-2-oxo-ethyl)-hydrazide]
Fold Induction, 27-63 Assay, 3.3 uM (average of two wells): 1
Fold Induction, 27-63 Assay, 33 uM (average of two wells): 832
27-63 assay Rel Max FI: 0.53
EC50 [1]: 19800 nM

CCc1c(OC)cccc1C(=O)NN(C(=O)c1cc(Cl)ccc1OC)C(C)(C)C [RG-115253]
Fold Induction, 27-63 Assay, 3.3 uM (average of two wells): 848
Fold Induction, 27-63 Assay, 33 uM (average of two wells): 910
27-63 assay Rel Max FI: 0.742
EC50 [1]: 107 nM

COc1ccc(OC)c(C(=O)N(NC(=O)c2cccc(C)c2C)C(C)(C)C)c1 [RG-100763]
Fold Induction, 27-63 Assay, 3.3 uM (average of two wells): 107
Fold Induction, 27-63 Assay, 33 uM (average of two wells): 1609
27-63 assay Rel Max FI: 0.856
EC50 [1]: 5300 nM

CCc1c(OC)cccc1C(=O)NN(C(=O)c1c(F)cccc1F)C(C)(C)C [RG-115033]
Fold Induction, 27-63 Assay, 3.3 uM (average of two wells): 2
Fold Induction, 27-63 Assay, 33 uM (average of two wells): 1256
27-63 assay Rel Max FI: 0.868
EC50 [1]: 18100 nM

CCc1c(C(=O)NN(C(=O)c2ccccc2OC)C(C)(C)C)ccc2c1OCOC2 [RG-115065]
Fold Induction, 27-63 Assay, 3.3 uM (average of two wells): 859
Fold Induction, 27-63 Assay, 33 uM (average of two wells): 1095
27-63 assay Rel Max FI: 0.746
EC50 [1]: 3000 nM

CCOC(=O)C(C)(C)N(NC(=O)c1cccc(OC)c1CC)C(=O)c1cc(C)cc(C)c1 [RG-115025, 2-[N-(3,5-dimethyl-benzoyl)-N′-(2-ethyl-3-methoxy-benzoyl)-hydrazino]-2-methyl-propionic acid ethyl ester]
EC50: 2450 nM
27-63 assay Rel Max FI: 1.523
fold induction at 3.3 µM: 2290
fold induction at 33 µM: 2240

COc1cccc(C(=O)NN(C(=O)c2cccc(C)c2)C(C)(C)C)c1C [RG-100694]
Fold Induction, 27-63 Assay, 3.3 uM (average of two wells): 1057
Fold Induction, 27-63 Assay, 33 uM (average of two wells): 1004
27-63 assay Rel Max FI: 0.767
EC50 [1]: 400 nM

CCc1c(C(=O)NN(C(=O)c2ccc(F)c(F)c2F)C(C)(C)C)ccc2c1OCCO2 [RG-115580]
Fold Induction, 27-63 Assay, 3.3 uM (average of two wells): 1104
Fold Induction, 27-63 Assay, 33 uM (average of two wells): 1031
27-63 assay Rel Max FI: 0.760
EC50 [1]: 375 nM

COc1ccccc1C(=O)N(NC(=O)c1ccc2c(c1)OCCO2)C(C)(C)C [RG-100492]
Fold Induction, 27-63 Assay, 3.3 uM (average of two wells): 4
Fold Induction, 27-63 Assay, 33 uM (average of two wells): 1378
27-63 assay Rel Max FI: 0.916
EC50 [1]: 11800 nM

CCc1c(C(=O)NN(C(=O)c2cc(F)ccc2F)C(C)(C)C)ccc2c1OCCO2 [RG-115508]
Fold Induction, 27-63 Assay, 3.3 uM (average of two wells): 1195
Fold Induction, 27-63 Assay, 33 uM (average of two wells): 969
27-63 assay Rel Max FI: 0.719
EC50 [1]: 1030 nM

CCc1c(C(=O)NN(C(=O)c2ccc(Cl)cc2OC)C(C)(C)C)ccc2c1OCO2 [RG-115085]
Fold Induction, 27-63 Assay, 3.3 uM (average of two wells): 1143
Fold Induction, 27-63 Assay, 33 uM (average of two wells): 1149
27-63 assay Rel Max FI: 0.683
EC50 [1]: 807 nM

CCc1c(OC)cccc1C(=O)NN(C(=O)c1ccc2c(c1)OCO2)C(C)(C)C [RG-100699]
Fold Induction, 27-63 Assay, 3.3 uM (average of two wells): 398
Fold Induction, 27-63 Assay, 33 uM (average of two wells): 1413
27-63 assay Rel Max FI: 0.939
EC50 [1]: 3960 nM

CCc1c(OC)cccc1C(=O)NN(C(=O)c1cc(C)cc(C)c1)C(C)(C)CO[Si](C)(C)C(C)(C)C [RG-115665, 2-ethyl-3-methoxy-benzoic acid N′-[2-(tert-butyl-dimethyl-silanyloxy)-1,1-dimethyl-ethyl]-N′-(3,5-dimethyl-benzoyl)-hydrazide]
EC50: 5490 nM
27-63 assay Rel Max FI: 0.01
fold induction at 3.3 µM: 2

CCc1c(OC)cccc1C(=O)NN(C(=O)c1cc(F)c(Cl)cc1Cl)C(C)(C)C [RG-115302]
Fold Induction, 27-63 Assay, 3.3 uM (average of two wells): 940
Fold Induction, 27-63 Assay, 33 uM (average of two wells): 815
27-63 assay Rel Max FI: 0.521
EC50 [1]: 1040 nM

CCc1c(C(=O)NN(C(=O)c2cc(OC)c(C)c(OC)c2)C(C)(C)C)ccc2c1OCCO2 [RG-115130]
Fold Induction, 27-63 Assay, 3.3 uM (average of two wells): 4436
Fold Induction, 27-63 Assay, 33 uM (average of two wells): 4096
27-63 assay Rel Max FI: 1.375
EC50 [1]: 93 nM

Cc1ccc(F)c(C(=O)N(NC(=O)c2ccc3c(c2C)CCCO3)C(C)(C)C)c1 [RG-115499]
Fold Induction, 27-63 Assay, 3.3 uM (average of two wells): 2092
Fold Induction, 27-63 Assay, 33 uM (average of two wells): 1536
27-63 assay Rel Max FI: 0.705
EC50 [1]: 336 nM

CCc1c(OC)cccc1C(=O)NN(C(=O)c1cc(C)cc(C)c1)C(C)(C)C=NCCO [RG-115511]
Fold Induction, 27-63 Assay, 3.3 uM (average of two wells): 1
Fold Induction, 27-63 Assay, 33 uM (average of two wells): 1155
27-63 assay Rel Max FI: 0.74
EC50 [1]: 12000 nM

Cc1c(C(=O)NN(C(=O)c2ccc(F)cc2)C(C)(C)C)ccc2c1OCCO2 [RG-100425]
Fold Induction, 27-63 Assay, 3.3 uM (average of two wells): 1156
Fold Induction, 27-63 Assay, 33 uM (average of two wells): 1099
27-63 assay Rel Max FI: 0.671
EC50 [1]: 370 nM

CCc1c(OC)cccc1C(=O)NN(C(=O)c1ccccc1OC)C(C)(C)C [RG-100725]
Fold Induction, 27-63 Assay, 3.3 uM (average of two wells): 1096
Fold Induction, 27-63 Assay, 33 uM (average of two wells): 1050
27-63 assay Rel Max FI: 0.726
EC50 [1]: 330 nM

COc1cccc(C(=O)NN(C(=O)c2cc(C)cc(C)c2)C(C)(C)C)c1[N+](=O)[O-] [RG-100568]
Fold Induction, 27-63 Assay, 3.3 uM (average of two wells): 615
Fold Induction, 27-63 Assay, 33 uM (average of two wells): 2286
27-63 assay Rel Max FI: 1.197
EC50 [1]: 4130 nM

CCc1c(OC)cccc1C(=O)NN(C(=O)c1cc(C)cc(C)c1)C(C)(C)C(=O)O [RG-115044, 2-[N-(3,5-Dimethyl-benzoyl)-N′-(2-ethyl-3-methoxy-benzoyl)-hydrazino]-2-methyl-propionic acid]
EC50: > 33000 nM
27-63 assay Rel Max FI: 0.00
fold induction at 3.3 µM: 1
fold induction at 33 µM: 2

COc1ccc(Cl)cc1C(=O)N(NC(=O)c1ccc2c(c1C)CCCO2)C(C)(C)C [RG-115551]
Fold Induction, 27-63 Assay, 3.3 uM (average of two wells): 1150
Fold Induction, 27-63 Assay, 33 uM (average of two wells): 1068
27-63 assay Rel Max FI: 0.684
EC50 [1]: 852 nM

CCc1c(OC)cccc1C(=O)NN(C(=O)c1ccc(Cl)cc1[N+](=O)[O-])C(C)(C)C [RG-115647]
Fold Induction, 27-63 Assay, 3.3 uM (average of two wells): 817
Fold Induction, 27-63 Assay, 33 uM (average of two wells): 815
27-63 assay Rel Max FI: 0.505
EC50 [1]: 372 nM

COc1ccc(C)cc1C(=O)N(NC(=O)c1cccc(OC)c1C)C(C)(C)C [RG-100766]
Fold Induction, 27-63 Assay, 3.3 uM (average of two wells): 931
Fold Induction, 27-63 Assay, 33 uM (average of two wells): 1993
27-63 assay Rel Max FI: 0.944
EC50 [1]: 3420 nM

CCc1c(OC)cccc1C(=O)NN(C(=O)c1cc(C)cc(C)c1)C(C)(C)C=NO [RG-115258, 2-ethyl-3-methoxy-benzoic acid N′-(3,5-dimethyl-benzoyl)-N′-(2-hydroxyimino-1,1-dimethyl-ethyl)-hydrazide]
EC50: 1880 nM
27-63 assay Rel Max FI: 1.279
fold induction at 3.3 µM: 1970
fold induction at 33 µM: 2210

Cc1ccc([N+](=O)[O-])c(C(=O)N(NC(=O)c2ccc3c(c2C)CCCO3)C(C)(C)C)c1 [RG-115664]
Fold Induction, 27-63 Assay, 3.3 uM (average of two wells): 1928
Fold Induction, 27-63 Assay, 33 uM (average of two wells): 1768
27-63 assay Rel Max FI: 0.635
EC50 [1]: 359 nM

CCc1c(C(=O)NN(C(=O)c2ccccc2)C(C)(C)C)ccc2c1OCOC2 [RG-115046]
Fold Induction, 27-63 Assay, 3.3 uM (average of two wells): 18
Fold Induction, 27-63 Assay, 33 uM (average of two wells): 1069
27-63 assay Rel Max FI: 0.739
EC50 [1]: 5660 nM

CCc1c(C(=O)NN(C(=O)c2ccc(Cl)cc2F)C(C)(C)C)ccc2c1OCCO2 [RG-115514]
Fold Induction, 27-63 Assay, 3.3 uM (average of two wells): 1616
Fold Induction, 27-63 Assay, 33 uM (average of two wells): 1427
27-63 assay Rel Max FI: 0.720
EC50 [1]: 170 nM

CCc1c(OC)cccc1C(=O)NN(C(=O)c1cc(C)ccc1[N+](=O)[O-])C(C)(C)C [RG-115162]
Fold Induction, 27-63 Assay, 3.3 uM (average of two wells): 1814
Fold Induction, 27-63 Assay, 33 uM (average of two wells): 1464
27-63 assay Rel Max FI: 0.653
EC50 [1]: 424 nM

CCc1c(OC)cccc1C(=O)NN(C(=O)c1cc(C)cc(C)c1)C(C)(C)CO [RG-115143]
Fold Induction, 27-63 Assay, 3.3 uM (average of two wells): 59
Fold Induction, 27-63 Assay, 33 uM (average of two wells): 1736
27-63 assay Rel Max FI: 1.112
EC50 [1]: 7780 nM

CCc1c(OC)cccc1C(=O)NN(C(=O)c1cc(C)cc(C)c1)C(C)(C)C=O [RG-115407, 2-ethyl-3-methoxy-benzoic acid N′-(3,5-dimethyl-benzoyl)-N′-(1,1-dimethyl-2-oxo-ethyl)-hydrazide]
EC50: 1060 nM
27-63 assay Rel Max FI: 0.932
fold induction at 3.3 µM: 1610
fold induction at 33 µM: 1520

CCc1c(C(=O)NN(C(=O)c2cccc(OC)c2)C(C)(C)C)ccc2c1OCCO2 [RG-100691]
Fold Induction, 27-63 Assay, 3.3 uM (average of two wells): 1378
Fold Induction, 27-63 Assay, 33 uM (average of two wells): 1209
27-63 assay Rel Max FI: 0.863
EC50 [1]: 330 nM

Cc1c(C(=O)NN(C(=O)c2cc(F)c(F)cc2F)C(C)(C)C)ccc2c1CCCO2 [RG-115229]
Fold Induction, 27-63 Assay, 3.3 uM (average of two wells): 2829
Fold Induction, 27-63 Assay, 33 uM (average of two wells): 1423
27-63 assay Rel Max FI: 0.735
EC50 [1]: 1150 nM
